Entries after “also recorded” stand apart in the source; their conditions may differ.
Assays:
in vitro = conditions: human
Calu-3 cells [1] = conditions: cited from earlier work
NHBE cells = conditions: cited from earlier work
16HBE14o- cells = conditions: cited from earlier work
Calu-3 cells [2] = experiment: Calu-3 cell uptake, FIA-TOFMS; type: in vitro ADME, human; conditions: 50 µg/mL; for Concentration [pg/µL] 1 in cell extract / Normalized concentration [pg/cell] 1: replicate 1; for Concentration [pg/µL] 2 in cell extract / Normalized concentration [pg/cell] 2: replicate 2; for Concentration [pg/µL] 3 in cell extract / Normalized concentration [pg/cell] 3: replicate 3
Method: At 4, 12, and 24 h after addition, cell extracts were generated in triplicates. To that end, the medium was aspirated from the respective wells, and cells were washed with pre-warmed ammonium carbonate solution (75 mM, pH 7.4, 37 °C). Immediately after removal of the wash solvent, 300 μL cold extraction solvent (40:40:20 acetonitrile:methanol:water, −20 °C) was added per well to lyse cells in situ and stop the enzymatic activity. The bottom of each well was subsequently scraped and the cell extracts were transferred to 96-well storage plates and stored at −80 °C until analysis. […] Quantification of SGC and SGD was performed using flow-injection time-of-flight mass spectrometry (FIA-TOFMS) in negative ion mode as described previously ([Fuhrer et al., 2011]). SGC and SGD signals were identified by matching accurate masses (for both [M-H]- at 707.2127 m/z). To account for possible influences of the complex matrix in the cell extract samples, a matrix-matched series of calibration samples were prepared, in which increasing concentrations of SGC were spiked into extracts of cells that had not previously been treated with either SGC or SGD. The calibration samples were injected alongside the cell extract samples and used to establish a calibration function using linear regression. The ion intensities measured were converted into SGC and SGD concentrations and normalized by the cell number in each sample, which was determined at each time point in separate cell cultures using trypan blue staining and cell counting in a Thermo Fisher Countess II Automated cell counter after trypsin-mediated cell detachment. This procedure eventually yielded estimates of SGC and SGD contents in pg/cell.

[3] = potentiometric logP, water-octanol (SiriusT3); type: physicochemical; conditions: experimental, mean ± S.D., n = 3
Method: LogP (partition coefficient) evaluation was performed via SiriusT3. The potentiometric logP measurement relies on assessing the partition profile of the test substance within a two-phase water-octanol solvent system. Changes in the relative volume ratio of octanol to water lead to shifts in the apparent pKa, resulting from the partitioning between non-ionised and ionised forms. LogP values were then estimated based on these assessments.

Calu-3 monolayer [4] = experiment: TEER of Calu-3 monolayer before and after permeability study
[5] = UV-metric pKa measurement (SiriusT3); type: physicochemical; conditions: experimental, SiriusT3, 25 °C, mean ± S.D.
Method: Experimental pKa (−log10 of the acid dissociation equilibrium constant) values of SGC and SGD were evaluated using the UV-metric pKa measurement method of the SiriusT3 automated titrator instrument and the corresponding software SiriusT3Control and SiriusT3Refine (Pion Inc., Billerica, USA). The SiriusT3 apparatus uses a deuterium lamp to determine the UV/Vis absorbance spectrum of the test solutions at each pH point. The standard aqueous UV-metric pKa measurement protocol was conducted according to manufacturer instructions. […] This was mixed with 25 μL phosphate buffer (14.7 mM K2HPO4 and 0.15 M KCl in MilliQ water) and diluted with 1.5 mL ionic strength-adjusted water (ISA water ≡ 0.15 M KCl in MilliQ water). The subsequent acid/base titration and measurement of UV absorbance was automatically performed by the SiriusT3 at 25.0 ± 0.5 °C. […] Turbidity was monitored by a turbidity sensor to ensure the absence of precipitation of the test compounds during the experiment, since accurate pKa measurements are limited to fully dissolved substances. In case turbidity occurred, individual titrations were not used for further analysis, resulting in a total of 11 analysable titrations across the 5 replicate samples for both SGC and SGD.

Calu-3 monolayer [6] = experiment: bidirectional permeability across Calu-3 monolayer; conditions: for concentration in the acceptor chamber (B-A): n = 3
[7] = mice, doses up to 100 mg/kg, ref Langeder et al., 2023b; cited from earlier work
SARS-CoV-2 = test system: SARS-CoV-2; parameters: method as in Wasilewicz et al., 2023; conditions: reported to be based on inhibition of the viral main protease, ref Wasilewicz et al., 2023; read-out: anti-SARS-CoV-2 activity IC50; cited from earlier work
Calu-3 monolayer [8] = experiment: MTT assay on Calu-3 monolayer after permeability study; type: cell-based, human; conditions: after B-A permeability study
Method: To assess potential cytotoxic effects on the monolayer, cell culture medium (10% FBS, 1% P/S) containing 0.45 mg/mL MTT reagent was added to the inserts (300 µL) and wells (1500 µL). Cells treated with fluorescein (40 µg/mL) served as a control. Samples were then incubated for 3.5 hours at 37°C. Following incubation, the MTT solution was removed, and DMSO was added to dissolve the formazan crystals (300 µL for inserts; 1500 µL for wells). The plates were incubated on a shaking platform at 200 rpm in the absence of light for 30 minutes. Subsequently, 100 µL samples from each well were pipetted into a 96-well plate, and the absorbance was measured at 570 nm using an Epoch 2 spectrophotometer.

[9] = control experiments for serum binding and adsorption to plastic
Calu-3 cells [10] = experiment: Calu-3 cell viability, MTT assay; conditions: MTT
[11] = pH-dependent thermodynamic solubility, miniaturized shake-flask method, UPLC-PDA

COCCc1ccc(OCC(O)CNC(C)C)cc1 (stereo not drawn) [metoprolol]
Papp A→B at 2 h, 500 μM (in vitro): 25.4 ± 6.9 ×10⁻⁶ cm/s
Papp B→A at 2 h, 500 μM (in vitro): 23.3 ± 4.9 ×10⁻⁶ cm/s
Papp (Calu-3 cells [1]): 10.3 ± 0.0 × 10^−6 cm/s
Papp (NHBE cells): 11.3 ± 0.7 × 10^−6 cm/s
Papp (16HBE14o- cells): 24.5 ± 2.5 × 10^−6 cm/s

sanggenon D [SGD]
intracellular content, Mean [pg/cell] (Calu-3 cells [2]; 4 h): 0.3 ± 0.2 pg/cell
Concentration [pg/µL] 1 in cell extract (Calu-3 cells [2]; 4 h): 449 pg/µL
Normalized concentration [pg/cell] 1 (Calu-3 cells [2]; 4 h): 0.23 pg/cell
Concentration [pg/µL] 2 in cell extract (Calu-3 cells [2]; 4 h): 281 pg/µL
Normalized concentration [pg/cell] 2 (Calu-3 cells [2]; 4 h): 0.14 pg/cell
Concentration [pg/µL] 3 in cell extract (Calu-3 cells [2]; 4 h): 1158 pg/µL
Normalized concentration [pg/cell] 3 (Calu-3 cells [2]; 4 h): 0.60 pg/cell
intracellular content, Mean [pg/cell] (Calu-3 cells [2]; 4 h, listed as Sanggenon D): 0.32 pg/cell
intracellular content, Mean [pg/cell] (Calu-3 cells [2]; 12 h): 0.54 pg/cell
Concentration [pg/µL] 1 in cell extract (Calu-3 cells [2]; 12 h): 1137 pg/µL
Normalized concentration [pg/cell] 1 (Calu-3 cells [2]; 12 h): 0.57 pg/cell
Concentration [pg/µL] 2 in cell extract (Calu-3 cells [2]; 12 h): 1116 pg/µL
Normalized concentration [pg/cell] 2 (Calu-3 cells [2]; 12 h): 0.55 pg/cell
Concentration [pg/µL] 3 in cell extract (Calu-3 cells [2]; 12 h): 1014 pg/µL
Normalized concentration [pg/cell] 3 (Calu-3 cells [2]; 12 h): 0.50 pg/cell
intracellular content, Mean [pg/cell] (Calu-3 cells [2]; 24 h): 0.69 pg/cell
Concentration [pg/µL] 1 in cell extract (Calu-3 cells [2]; 24 h): 1552 pg/µL
Normalized concentration [pg/cell] 1 (Calu-3 cells [2]; 24 h): 0.59 pg/cell
Concentration [pg/µL] 2 in cell extract (Calu-3 cells [2]; 24 h): 2206 pg/µL
Normalized concentration [pg/cell] 2 (Calu-3 cells [2]; 24 h): 0.84 pg/cell
Concentration [pg/µL] 3 in cell extract (Calu-3 cells [2]; 24 h): 1671 pg/µL
Normalized concentration [pg/cell] 3 (Calu-3 cells [2]; 24 h): 0.63 pg/cell
logP [3]: 2.92 ± 0.07
change in TEER during permeability study, B-A direction (Calu-3 monolayer [4]; 20 µg/mL in basolateral chamber, 2 h, Calu-3 batch 1): significant decrease in TEER values; also recorded: loss in TEER
TEER after 24 h of incubating with medium at 37 °C (Calu-3 monolayer [4]; B-A directed test wells after permeability study): showed a recovery in TEER; also recorded: recovery to initial values
pKa 1 [5]: 3.27 ± 0.37
pKa 2 [5]: 6.37 ± 0.13
pKa 3 [5]: 7.25 ± 0.32
pKa 4 [5]: 7.99 ± 0.26
pKa 5 [5]: 8.99 ± 0.08
pKa 6 [5]: 9.94 ± 0.04
pKa 7 [5]: 10.78 ± 0.01
pKa 8 [5]: 12.04 ± 0.07
amount detected in the acceptor chamber (B-A) (Calu-3 monolayer [6]; B-A, 2 h, isolated SGD or extracts): < 0.6%
concentration in the acceptor chamber (B-A) (Calu-3 monolayer [6]; SGD after applying MA21 600 μg/mL, B-A, 2 h): 7.9 ± 4.2 ng/mL
concentration in the acceptor chamber (B-A) (Calu-3 monolayer [6]; SGD after applying MA60 100 μg/mL, B-A, 2 h): 10.6 ± 5.7 ng/mL
permeability across intact Calu-3 monolayers (Calu-3 monolayer [6]; abstract statement): no measurable permeability
evidence for permeability of SGC or SGD (Calu-3 monolayer [6]; applied as extracts MA60 (100 μg/mL) and MA21 (600 μg/mL), 2 h): Neither by applying the isolated compounds nor the extracts MA60 and MA21, any evidence for the permeability of SGC or SGD was detectable
concentration in the acceptor chamber (B-A) (Calu-3 monolayer [6]; isolated SGD 20 μg/mL applied, B-A, 2 h): 35.4 ± 15.1 ng/mL
detection in the acceptor chamber after 2 h of incubation (A-B direction) (Calu-3 monolayer [6]; isolated compound 20 μg/mL, A-B): could not be detected
serum and tissue concentrations after oral administration [7]: low serum and tissue concentrations
IC50 (SARS-CoV-2): 13.9 µM
cytotoxic effects on Calu-3 monolayer after permeability study (MTT) (Calu-3 monolayer [8]): Neither batch 1 nor batch 2 showed a decrease in cell viability; also recorded: no cytotoxic effects
binding to serum proteins [9]: no indication that SGC or SGD bind to serum proteins
cytotoxic effects (Calu-3 cells [10]; 50 μg/mL, 4-h and 12-h incubation): no cytotoxic effects were observed
CC50 (Calu-3 cells [10]; Calu-3 cells, 24 h exposure): 120.5 µg/mL
pH 1.2 solubility ([11]; compound within extract MA21, pH 1.2): < LOQ
pH 4.5 solubility ([11]; compound within extract MA21, pH 4.5): < LOQ
pH 6.8 solubility ([11]; compound within extract MA21, pH 6.8): < LOQ
pH 7.4 solubility ([11]; compound within extract MA21, pH 7.4): < LOQ
pH 1.2 solubility ([11]; compound within extract MA60, pH 1.2): 20.6 µg/mL
pH 4.5 solubility ([11]; compound within extract MA60, pH 4.5): 19.7 µg/mL
pH 6.8 solubility ([11]; compound within extract MA60, pH 6.8): 56.8 µg/mL
pH 7.4 solubility ([11]; compound within extract MA60, pH 7.4): 94.9 µg/mL
pH 1.2 solubility ([11]; isolated compound, HCl buffer pH 1.2, 24 h, 24 °C): 111 µg/mL
pH 4.5 solubility ([11]; isolated compound, acetate buffer pH 4.5, 24 h, 24 °C): 121 µg/mL
pH 6.8 solubility ([11]; isolated compound, phosphate buffer pH 6.8, 24 h, 24 °C): 304 µg/mL
pH 7.4 solubility ([11]; isolated compound, phosphate buffer pH 7.4, 24 h, 24 °C): 493 µg/mL

Reference: PMC11381475, “Biopharmaceutical profiling of anti-infective sanggenons from Morus alba root bark for inhalation administration” (International Journal of Pharmaceutics: X, 2024)
